Data on two molecules can be found in ChEMBL document CHEMBL5543075, “Phenoxytacrine derivatives: Low-toxicity neuroprotectants exerting affinity to ifenprodil-binding site and cholinesterase inhibition” (Eur J Med Chem, 2024).

Series [1] in a line: Cytotoxicity against CHO-K1 cells incubated for 24 hrs by MTT assay. In kind it is toxicity, cell-based, Cricetulus griseus. The note with it: Chinese hamster. For orientation: Tetrazolium dyes change colour on reduction, which living cells bring about.
The nature of series [2]: Inhibition of recombinant human GluN1/GluN2B Q110F mutant receptor expressed in HEK293 cells assessed as reduction in glutamate induced current at -60 mV holding potential by electrophysiology assay. The class given is cell-based.
In series [3] the test system is Rattus norvegicus. Briefly: Antipsychotic activity in Wistar rat assessed as effect on pre-pulse inhibition of acoustic startle response at 5 mg/kg, ip measured after 10 mins by pre-pulse inhibition test. The class given is functional, organism-based.
Series [4] concerns the target T1, Glutamate NMDA receptor; GRIN1/GRIN2B (Homo sapiens, UniProt Q05586+Q13224). The experiment in a line: Inhibition of recombinant human GluN1/GluN2B receptor expressed in HEK293 cells assessed as reduction in glutamate induced current at 1 uM at -60 mV holding potential by electrophysiology assay relative to control. In kind it is cell-based.
A short description of series [5]: Toxicity in Wistar rat assessed as no observed adverse effect level (NOAEL) at 5 mg/kg, ip. The class given is organism-based. To be noted: in vivo.
The test system of series [6] is Rattus norvegicus. The experiment in a line: Antipsychotic activity in Wistar rat assessed as effect on locomotor activity at 5 mg/kg, ip measured after 10 mins by open field test. The class given is functional, organism-based.
A short description of series [7]: Inhibition of recombinant human GluN1/GluN2B F114A mutant receptor expressed in HEK293 cells assessed as reduction in glutamate induced current at -40 mV holding potential by electrophysiology assay. The class given is cell-based.
The target of series [8] is T2, Glutamate NMDA receptor; GRIN1/GRIN2A (Homo sapiens, UniProt Q05586+Q12879). The experiment in a line: Inhibition of recombinant wild type human GluN1/GluN2A receptor expressed in HEK293 cells assessed as reduction in glutamate induced current at -60 mV holding potential by electrophysiology assay. In kind it is cell-based.
Series [9] can be described thus: Inhibition of recombinant human GluN1 deltaATD/GluN2B receptor expressed in HEK293 cells assessed as reduction in glutamate induced current at -60 mV holding potential by electrophysiology assay. In kind it is cell-based.
Series [10] in a line: Inhibition of recombinant human GluN1 deltaATD/GluN2B receptor expressed in HEK293 cells assessed as reduction in glutamate induced current at -40 mV holding potential by electrophysiology assay. The class given is cell-based.
Series [11] can be described thus: in vitro. To be noted: human, liver microsomes. (In general: Liver microsomes are vesicles of endoplasmic reticulum, rich in cytochrome P450 enzymes.)
Description: Metabolic stability in human liver microsomes assessed as intrinsic clearance at 3 uM measured upto 45 min in presence of NADPH regenerating system by LC-MS analysis
The next series concerns the target Acetylcholinesterase (Homo sapiens, UniProt P22303). The experiment in a line: Inhibition of human AChE by spectrophotometric Ellman's method. (In general: Ellman's reagent forms a yellow product with free thiols.)
The nature of series [12]: Inhibition of recombinant human GluN1/GluN2B Q110F mutant receptor expressed in HEK293 cells assessed as reduction in glutamate induced current at -40 mV holding potential by electrophysiology assay. The class given is cell-based.
In series [13] the test system is Rattus norvegicus. Briefly: Antialzheimer activity against scopolamine-induced cognitive impairment in Wistar rat assessed as decrease in mean distance from platform at 5 mg/kg, ip measured upto 4 days by morris water maze test (reference value: 51.7 +/-1.5 cm). The class given is functional. To be noted: time <= 4 day.
Series [14] has as its system Rattus norvegicus. The experiment in a line: Antialzheimer activity against scopolamine-induced cognitive impairment in Wistar rat assessed as decrease in latency to reach platform at 5 mg/kg, ip measured upto 4 days by morris water maze test. In kind it is functional, organism-based. The note with it: time <= 4.0 day.
Series [15] can be described thus: Inhibition of recombinant human GluN1 Y109C /GluN2B receptor expressed in HEK293 cells assessed as reduction in glutamate induced current at -60 mV holding potential by electrophysiology assay. In kind it is cell-based.
Series [16] can be described thus: Inhibition of recombinant human GluN1 Y109C /GluN2B receptor expressed in HEK293 cells assessed as reduction in glutamate induced current at -40 mV holding potential by electrophysiology assay. The class given is cell-based.
The target in series [17] is T1, Glutamate NMDA receptor; GRIN1/GRIN2B. Briefly: Inhibition of recombinant wild type human GluN1/GluN2B receptor expressed in HEK293 cells assessed as reduction in glutamate induced current at -60 mV holding potential by electrophysiology assay. The class given is cell-based.
Series [18] is described as follows: Inhibition of recombinant human GluN1/GluN2B F114A mutant receptor expressed in HEK293 cells assessed as reduction in glutamate induced current at -60 mV holding potential by electrophysiology assay. The class given is cell-based.
Series [19] has as its target T1, Glutamate NMDA receptor; GRIN1/GRIN2B. Briefly: Inhibition of recombinant wild type human GluN1/GluN2B receptor expressed in HEK293 cells assessed as reduction in glutamate induced current at -40 mV holding potential by electrophysiology assay. The class given is cell-based.
Series [20] can be described thus: Inhibition of recombinant human GluN1 F113A /GluN2B receptor expressed in HEK293 cells assessed as reduction in glutamate induced current at -60 mV holding potential by electrophysiology assay. In kind it is cell-based.
The next series concerns the target Cholinesterase (Homo sapiens, UniProt P06276). The experiment in a line: Inhibition of human BChE by spectrophotometric Ellman's method.
Series [21] in a line: Toxicity in Wistar rat assessed as loss of activity at 10 mg/kg, ip. In kind it is organism-based. To be noted: in vivo.
Series [22] is described as follows: Inhibition of recombinant human GluN1 F113A /GluN2B receptor expressed in HEK293 cells assessed as reduction in glutamate induced current at -40 mV holding potential by electrophysiology assay. The class given is cell-based.
A short description of series [23]: Toxicity in Wistar rat assessed as reduction in breathing at 10 mg/kg, ip. The class given is organism-based. To be noted: in vivo.
The nature of series [24]: in vitro. The note with it: human, liver microsomes. This is another data set of the same source.
Description: Metabolic stability in human liver microsomes assessed as half life at 3 uM measured upto 45 min in presence of NADPH regenerating system by LC-MS analysis
Series [25] relates to Rattus norvegicus. The experiment in a line: Antialzheimer activity against scopolamine-induced cognitive impairment in Wistar rat assessed as increase in number of platform crossing at 5 mg/kg, ip measured upto 4 days by morris water maze test. In kind it is functional, organism-based. To be noted: time <= 4.0 day.
Series [26] concerns the target T2, Glutamate NMDA receptor; GRIN1/GRIN2A. Briefly: Inhibition of recombinant wild type human GluN1/GluN2A receptor expressed in HEK293 cells assessed as reduction in glutamate induced current at -40 mV holding potential by electrophysiology assay. In kind it is cell-based.
For series [27], the target named is T1, Glutamate NMDA receptor; GRIN1/GRIN2B. The experiment in a line: Inhibition of recombinant human GluN1/GluN2B receptor expressed in HEK293 cells assessed as reduction in glutamate induced current at -20 mV holding potential by electrophysiology assay. In kind it is cell-based.

The source made the active and inactive calls.

T2 sequence (Q12879 whole entry, other chains not shown): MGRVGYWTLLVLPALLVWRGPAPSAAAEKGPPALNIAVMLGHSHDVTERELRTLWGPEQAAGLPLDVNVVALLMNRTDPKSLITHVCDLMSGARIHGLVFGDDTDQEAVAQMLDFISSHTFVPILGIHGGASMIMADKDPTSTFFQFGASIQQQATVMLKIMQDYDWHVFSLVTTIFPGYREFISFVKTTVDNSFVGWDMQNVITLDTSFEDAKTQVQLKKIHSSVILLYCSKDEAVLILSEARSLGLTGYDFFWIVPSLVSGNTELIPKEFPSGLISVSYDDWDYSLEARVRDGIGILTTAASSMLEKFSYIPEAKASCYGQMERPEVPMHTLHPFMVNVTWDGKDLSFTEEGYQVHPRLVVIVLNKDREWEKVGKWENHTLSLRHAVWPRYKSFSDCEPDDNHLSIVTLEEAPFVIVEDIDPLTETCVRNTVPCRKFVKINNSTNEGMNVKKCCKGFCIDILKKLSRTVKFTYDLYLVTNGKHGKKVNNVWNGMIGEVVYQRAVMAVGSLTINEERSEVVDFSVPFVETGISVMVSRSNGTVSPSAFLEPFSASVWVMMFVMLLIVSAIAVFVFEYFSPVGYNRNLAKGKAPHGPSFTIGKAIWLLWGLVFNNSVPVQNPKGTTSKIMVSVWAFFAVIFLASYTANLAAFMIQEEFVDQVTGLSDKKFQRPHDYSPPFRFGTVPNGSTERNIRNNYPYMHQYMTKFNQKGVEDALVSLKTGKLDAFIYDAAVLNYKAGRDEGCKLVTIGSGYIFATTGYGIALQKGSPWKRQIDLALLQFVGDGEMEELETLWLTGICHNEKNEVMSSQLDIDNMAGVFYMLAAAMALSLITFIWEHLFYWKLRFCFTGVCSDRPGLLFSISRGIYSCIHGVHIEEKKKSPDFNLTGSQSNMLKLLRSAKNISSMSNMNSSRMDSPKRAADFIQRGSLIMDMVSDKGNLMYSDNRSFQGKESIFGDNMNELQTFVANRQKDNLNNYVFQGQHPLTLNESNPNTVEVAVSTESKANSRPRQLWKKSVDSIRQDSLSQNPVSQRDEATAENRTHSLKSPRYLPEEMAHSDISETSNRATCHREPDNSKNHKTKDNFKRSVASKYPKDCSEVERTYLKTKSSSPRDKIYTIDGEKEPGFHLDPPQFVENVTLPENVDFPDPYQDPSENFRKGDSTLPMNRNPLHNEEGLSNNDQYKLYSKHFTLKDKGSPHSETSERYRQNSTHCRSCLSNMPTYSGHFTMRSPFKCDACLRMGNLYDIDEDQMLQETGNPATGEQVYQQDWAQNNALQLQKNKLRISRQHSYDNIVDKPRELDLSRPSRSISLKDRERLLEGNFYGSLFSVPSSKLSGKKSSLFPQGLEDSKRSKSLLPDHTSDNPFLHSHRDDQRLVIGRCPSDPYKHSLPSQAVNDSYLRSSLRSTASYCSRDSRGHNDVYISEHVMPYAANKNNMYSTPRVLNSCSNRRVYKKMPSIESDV
Chain of Cholinesterase (P06276 whole entry): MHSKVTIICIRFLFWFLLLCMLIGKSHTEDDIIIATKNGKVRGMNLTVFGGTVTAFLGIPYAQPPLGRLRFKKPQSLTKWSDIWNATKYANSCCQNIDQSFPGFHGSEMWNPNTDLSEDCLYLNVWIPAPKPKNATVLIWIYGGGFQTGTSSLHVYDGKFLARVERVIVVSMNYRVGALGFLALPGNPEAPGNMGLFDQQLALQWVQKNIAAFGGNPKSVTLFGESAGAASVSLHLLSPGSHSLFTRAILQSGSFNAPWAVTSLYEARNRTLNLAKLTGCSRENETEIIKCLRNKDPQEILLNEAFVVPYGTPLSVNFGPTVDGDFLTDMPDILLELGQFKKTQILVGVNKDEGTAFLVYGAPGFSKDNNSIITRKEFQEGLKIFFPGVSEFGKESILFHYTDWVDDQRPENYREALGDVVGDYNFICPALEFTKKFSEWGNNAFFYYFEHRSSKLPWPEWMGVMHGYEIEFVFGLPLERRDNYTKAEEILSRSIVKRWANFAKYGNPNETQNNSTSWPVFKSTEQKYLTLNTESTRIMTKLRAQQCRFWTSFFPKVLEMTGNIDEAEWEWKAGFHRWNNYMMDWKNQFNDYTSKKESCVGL
Chain of Acetylcholinesterase (P22303 whole entry): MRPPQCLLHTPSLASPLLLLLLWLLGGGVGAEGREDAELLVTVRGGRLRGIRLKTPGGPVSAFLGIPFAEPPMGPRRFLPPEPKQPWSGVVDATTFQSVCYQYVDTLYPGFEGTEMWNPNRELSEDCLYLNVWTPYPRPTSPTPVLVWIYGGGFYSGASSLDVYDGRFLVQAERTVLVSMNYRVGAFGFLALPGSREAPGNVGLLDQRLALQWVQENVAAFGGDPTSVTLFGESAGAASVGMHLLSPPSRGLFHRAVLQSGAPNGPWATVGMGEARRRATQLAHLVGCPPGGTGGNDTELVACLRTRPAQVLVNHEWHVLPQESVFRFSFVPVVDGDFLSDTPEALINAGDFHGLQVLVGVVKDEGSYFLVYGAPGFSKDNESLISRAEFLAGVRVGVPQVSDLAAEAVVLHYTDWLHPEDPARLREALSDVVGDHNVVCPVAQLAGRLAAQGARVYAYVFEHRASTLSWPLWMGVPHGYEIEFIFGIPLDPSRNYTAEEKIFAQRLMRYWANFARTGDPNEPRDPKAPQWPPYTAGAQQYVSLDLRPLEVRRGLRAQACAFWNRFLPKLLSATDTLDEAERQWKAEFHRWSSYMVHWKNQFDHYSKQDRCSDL

For the molecule `COc1ccccc1Oc1ccc2nc3c(c(N)c2c1)CCCC3.Cl`, it took 43 µM to reach half-maximal inhibition in [1] (IC50 at 24 h). The IC50 (in general, the point on the concentration scale where inhibition reaches its midpoint) in series [2] came out at 9.5 µM; in [7], 31.9 µM; in [8], 10.1 µM; in series [9] it was 11.1 µM; in series [10] it was 47.2 µM; at Acetylcholinesterase it was 840 nM. Moreover, the IC50 in series [12] is 10.3 µM; in series [15], 9.5 µM; in series [16] it was 8.4 µM; in [17], 3.6 µM; in series [18], 9.4 µM; in series [19] it was 6.8 µM. Further, the IC50 is 1700 nM in series [20], 440 nM against Cholinesterase, 2100 nM in [22] and 43.8 µM in series [26]. The outcome in the series with Rattus norvegicus [3], with Rattus norvegicus [6], with Rattus norvegicus [14] and with Rattus norvegicus [25] was inactive. Besides, the inhibition (usually the share of the control response that was lost under treatment) in [4] amounted to 25.7%. For the same molecule, the Activity result is “Non-Toxic” in series [5], 78.7 cm with Rattus norvegicus [13], “Toxic” in series [21] and “Toxic” in [23]. In addition, in “in vitro [11]”, the microsomal CLint – broadly, the capacity of the preparation to metabolise the compound, expressed as a volume cleared per time – at 0.75 h, 3 µM was 8.61 µL/min/mg. Also, the half-life (commonly the time needed for the level to fall by half in the phase considered) at 0.75 h, 3 µM in “in vitro [24]” amounted to 161 min.
Regarding `Nc1c2c(nc3ccc(Oc4ccccc4)cc13)CCCC2`, the IC50 at 24 h in series [1] stood at 31 µM. In addition, the inhibition in [4] was 33.1%. Also, in series [27], the IC50 was roughly 2000 nM.
